Test [1] has as its target T1, human ADRA2C receptor (Homo sapiens (Human), UniProt P18825). Put plainly: In vitro radioligand binding studies ([3H] rauwolscine competition) at the human adrenoreceptor ADRA2C. The following applies: for IC50: 0.5 nM [3H] rauwolscine, homogenates of CHO-K1 cells expressing human ADRA2C, 1 h at 4° C., read-out: hARα2C IC50; for Ki: calculated from IC50 and Kd with the Cheng Prusoff equation, read-out: hARα2C Ki. As for the experimental part: B-1 In Vitro Radioligand Binding Studies for Determination of the Dissociation Constants K1 at the Human Adrenoreceptor ADRA2C (Eurofins Panlabs Discovery Services, Taiwan, Ltd)
A competition assay based on [^3H] rauwolscine as radioliganden was used to determine the binding affinity of the test substances at the human ADRA2C receptor.
To configure the competition assay, the equilibrium dissociation constant Kd of the radioligand [^3H] rauwolscine was determined in a saturation experiment. To this end, homogenates of CHO-K1 cells recombinantly expressing the human ADRA2C receptor were incubated with increasing concentrations of the radiotracers for 1 h at 4° C. in binding buffer (50 mM Tris-HCl, 1 mM EDTA, pH 7.4). Unspecific binding was determined by addition of an excess of the not radioactively labelled ligand prazosin (10 μM). The radioactivity was determined in a scintiation counter.
The competition experiments were carried out in the presence of 0.5 nM [^3H] rauwolscine and increasing concentrations of the test substances to be characterized under the conditions described above.
From the IC50 value measured in the competition experiment and the […] from the saturation experiment, the equilibrium constant Ki of the inhibitor, which describes the affinity of the test substances to the receptor, was calculated using the Cheng Prusoff equation [Cheng Y, Prusoff WH. Relationship between the inhibition constant (Ki) and the concentration of inhibitor which causes 50 percent inhibition (I50) of an enzymatic reaction. […] PMID 4202581 PMID: 4202581].

For test [2], the target named is T1, human ADRA2C receptor. Put plainly: In vitro activity assay to determine the inhibition of recombinant ADRA2C (CHO-K1 cells, aequorin bioluminescence). It counts as cell-based. The settings on record: inhibition of noradrenaline-induced bioluminescence signal; some mean values from multiple determinations; read-out: ARα2C IC50. An outline of the steps: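 IC50 is the concentration halving the agonist (noradrenaline)-evoked rise in aequorin luminescence, fitted by 4-parameter Hill function. Read in stable Gαq/aequorin CHO-K1 cells expressing recombinant human ADRA2C.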

The subject of test [3] is anaesthetized, spontaneously breathing pigs. Put plainly: Pig model of obstructive sleep apnea (OSA): upper airway collapsibility under negative pressure. It counts as in vivo, German Landrace pigs. The settings on record: for Percent pigs without collaps −50 cm H2O / Percent pigs without collaps −100 cm H2O / Percent pigs without collaps −150 cm H2O: 0.01 mg/kg intraduodenal at 0 min; for upper airway collapsibility / time points at which upper airway collapsibility was inhibited at all negative pressures of −50, −100 and −150 cm H2O in all pigs: 0.01 mg/kg intraduodenal, alone.
Source text: B-3 Animal Model of Obstructive Sleep Apnoea in the Pig
Using negative pressure, it is possible to induce collapse and thus obstruction of the upper respiratory tract in anesthetized, spontaneously breathing pigs [Wirth et al., Sleep 36, 699-708 (2013)].
German Landrace pigs are used for the model. The pigs are anesthetized and tracheotomized. One cannula each is inserted into the rostral and the caudal part of the trachea. Using a T connector, the rostral cannula is connected on the one hand to a device generating negative pressures and on the other hand to the caudal cannula. Using a T connector, the caudal cannula is connected to the rostral cannula and to a tube which allows spontaneous breathing circumventing the upper respiratory tract. By appropriate closing and opening of the tubes it is thus possible for the pig to change from normal nasal breathing to breathing via the caudal cannula during the time when the upper respiratory tract is isolated and connected to the device for generating negative pressures. The muscle activity of the musculus genioglossus is recorded by electromyogram (EMG).
(§1) At certain points in time, the collapsibility of the upper respiratory tract is tested by having the pig breathe via the caudal cannula and applying negative pressures of −50, −100 and −150 cm water head (cmH2O) to the upper respiratory tract. This causes the upper respiratory tract to collapse, which manifests itself in an interruption of the airflow and a pressure drop in the tube system. This test is conducted prior to the administration of the test substance and at certain intervals after the administration of the test substance. An appropriately effective test substance can prevent this collapse of the respiratory tract in the inspiratory phase.
Administration of the test substance can be intranasal, intravenous, subcutaneous, intraperitoneal, intraduodenal or intragastral.
The therapeutic potential of the combination of an α2-Adrenoceptor subtype C (alpha-2C) antagonists with a TASK⅓ channel blocker according to the present invention in sleep apnea can be assessed preclinically in a pig model of obstructive sleep apnea (OSA).
Using negative pressure, it is possible to induce collapse and thus obstruction of the upper respiratory tract in anaesthetized, spontaneously breathing pigs (Wirth K. J. et al., Sleep 36(5) (2013) pp. 699-708).
German Landrace pigs are used for the model. The pigs are anaesthetized and tracheotomized. Two tracheal cannulas are inserted into the trachea, one into the rostral part and the other into the caudal part of the trachea. Using a connection piece, the rostral cannula is connected to a tube to the negative pressure device and to the distal tracheal cannula. The distal tracheal cannula is additionally connected to a tube with an open end to atmosphere via a connection piece that served for free tracheal breathing, circumventing the upper airway. By appropriate opening and clamping of those tubes breathing can be switched from nasal breathing to breathing through the caudal tracheal cannula, circumventing the upper airway, and the (isolated) upper airway can be connected to the negative pressure device, causing airflow in the inspiratory direction.
as §1, with “(cm H2O)” for “(cmH2O)”

T1 sequence (P18825 whole entry): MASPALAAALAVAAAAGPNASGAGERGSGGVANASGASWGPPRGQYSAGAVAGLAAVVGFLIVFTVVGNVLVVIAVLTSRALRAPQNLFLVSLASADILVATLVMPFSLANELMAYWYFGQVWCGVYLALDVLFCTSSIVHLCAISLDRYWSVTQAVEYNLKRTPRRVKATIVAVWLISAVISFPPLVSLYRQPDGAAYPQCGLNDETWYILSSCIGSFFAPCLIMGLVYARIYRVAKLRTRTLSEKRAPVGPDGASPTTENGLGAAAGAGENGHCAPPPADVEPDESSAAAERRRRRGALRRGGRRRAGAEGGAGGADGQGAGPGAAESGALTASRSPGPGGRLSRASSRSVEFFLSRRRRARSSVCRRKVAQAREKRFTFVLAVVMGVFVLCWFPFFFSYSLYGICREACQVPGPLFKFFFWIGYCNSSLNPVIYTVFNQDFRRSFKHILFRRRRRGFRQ

A word on the IC50: it is the midpoint of a concentration-inhibition curve. A word on the Ki: it is a measure of affinity in units of concentration, obtained from inhibition or displacement. With `COCC1CCCN(C2CCN(c3ncc(C(=O)NCc4ncc(F)cc4F)s3)CC2)C1` (single isomer, unassigned) [Example 100, ent-N-[(3,5-Difluoropyridin-2-yl)methyl]-2-[3-(methoxymethyl)[1,4′-bipiperidin]-1′-yl]-1,3-thiazole-5-carboxamide], on human ADRA2C receptor [1], the IC50 amounted to 5 nM and the Ki was 2 nM. Further, at human ADRA2C receptor [2], the IC50 turned out to be 2.9 nM.
In the case of `C[C@@H]1CCCN(C2CCN(c3ncc(C(=O)NCc4ncc(F)cc4F)s3)CC2)C1` [Example 1, N-[(3,5-Difluoropyridin-2-yl)methyl]-2-[(3R)-3-methyl[1,4′-bipiperidin]-1′-yl]-1,3-thiazole-5-carboxamide], on human ADRA2C receptor [1], the concentration for half-maximal inhibition (IC50) stood at 54 nM and the Ki was 24 nM. Further, the IC50 at human ADRA2C receptor [2] came out at 121 nM.
`C[C@@H]1CCCN(C2CCN(c3ncc(C(=O)NCc4ncc(F)cc4F)s3)CC2)C1` [N-[(3,5-difluoropyridin-2-yl)methyl]-2-[(3R)-3-methyl[1,4′-bipiperidin]-1′-yl]-1,3-thiazole-5-carboxamide]: the “Percent pigs without collaps −50 cm H2O” value was 0% in test [3] (time 0 min); 0% in test [3] (time 30 min); 0% in test [3] (time 60 min); 33% in test [3] (time 90 min); 100% in test [3] (time 120 min); 100% in test [3] (time 150 min). For the same molecule, the “Percent pigs without collaps −50 cm H2O” value in test [3] (time 180 min) stood at 100%; in test [3] (time 210 min), 67%; in test [3] (time 230 min) it was 0%; in test [3] (second set, time 0 min) it was 0%; in test [3] (second set, time 30 min), 0%; in test [3] (second set, time 60 min), 50%. Further, the “Percent pigs without collaps −50 cm H2O” value in test [3] (second set, time 90 min) came to 100%; in test [3] (second set, time 120 min), 100%; in test [3] (second set, time 150 min) it was 50%; in test [3] (second set, time 180 min), 0%. Also, the “Percent pigs without collaps −100 cm H2O” value in test [3] (time 0 min) was found to be 0%; in test [3] (time 30 min), 0%; in test [3] (time 60 min) it was 0%; in test [3] (time 90 min) it was 33%; in test [3] (time 120 min), 100%; in test [3] (time 150 min) it was 100%. In addition, the “Percent pigs without collaps −100 cm H2O” value in test [3] (time 180 min) turned out to be 100%; in test [3] (time 210 min), 33%; in test [3] (time 230 min), 0%; in test [3] (second set, time 0 min) it was 0%; in test [3] (second set, time 30 min), 0%; in test [3] (second set, time 60 min), 0%. The “Percent pigs without collaps −100 cm H2O” value is 50% in test [3] (second set, time 90 min); 100% in test [3] (second set, time 120 min); 0% in test [3] (second set, time 150 min); 0% in test [3] (second set, time 180 min). Moreover, the “Percent pigs without collaps −150 cm H2O” value came to 0% in test [3] (time 0 min); 0% in test [3] (time 30 min); 0% in test [3] (time 60 min); 33% in test [3] (time 90 min); 67% in test [3] (time 120 min); 100% in test [3] (time 150 min). For the same molecule, the “Percent pigs without collaps −150 cm H2O” value in test [3] (time 180 min) was 100%; in test [3] (time 210 min), 0%; in test [3] (time 230 min), 0%; in test [3] (second set, time 0 min) it was 0%; in test [3] (second set, time 30 min), 0%; in test [3] (second set, time 60 min) it was 0%. Moreover, the “Percent pigs without collaps −150 cm H2O” value was determined as 50% in test [3] (second set, time 90 min); 0% in test [3] (second set, time 120 min); 0% in test [3] (second set, time 150 min); 0% in test [3] (second set, time 180 min). For the same molecule, the upper airway collapsibility entry in test [3] (230 min after administration, all pigs) was “induced at all negative pressures”; in test [3] (second set, 90 min after administration), “only inhibited at negative pressures of −50 cm head”; in test [3] (second set, 120 min after administration), “only inhibited at negative pressures of −50 and −100 cm head”; in test [3] (second set, 180 min after administration, all pigs) it was “induced at all negative pressures”. Further, the “time points at which upper airway collapsibility was inhibited at all negative pressures of −50, −100 and −150 cm H2O in all pigs” value in test [3] (first set) is “only at time point 150 and 180 min”; in test [3] (second set), “at no time point”.

These data come from patent US20240000767A1, “COMBINATION OF AN ALPHA2-ADRENOCEPTOR SUBTYPE C (ALPHA-2C) ANTAGONIST WITH A TASK1/3 CHANNEL BLOCKER FOR THE TREATMENT OF SLEEP APNEA” (Bayer Aktiengesellschaft, priority 2020, published 2024).
